# Data: ChEMBL document CHEMBL6096719, “Kidney Targeting Smart Antibiotic Discovery: Multimechanism Pleuromutilins for Pyelonephritis Therapy” (J Med Chem, 2025)
# Experiment: Aqueous solubility of the compound incubated for 12 hrs by UV-Vis spectrophotometry
# Type: physicochemical
# Settings: buffer
row,solubility at 12 h [µg/mL],Structure (SMILES)
1,432,C=C[C@]1(C)C[C@@H](OC(=O)CSc2nc3cc[n+](Cc4ccc(Br)cc4)cc3[nH]2)[C@]2(C)[C@H](C)CC[C@]3(CCC(=O)[C@H]32)[C@@H](C)[C@@H]1O.[Br-]
2,337,C=C[C@]1(C)C[C@@H](OC(=O)CSc2nc3cc[n+](Cc4ccc(C(F)(F)F)cc4)cc3[nH]2)[C@]2(C)[C@H](C)CC[C@]3(CCC(=O)[C@H]32)[C@@H](C)[C@@H]1O.[Br-]
3,691,Br.C=C[C@]1(C)C[C@@H](OC(=O)CSc2nc3cc[n+](Cc4ccc([N+](=O)[O-])cc4)cc3[nH]2)[C@]2(C)[C@H](C)CC[C@]3(CCC(=O)[C@H]32)[C@@H](C)[C@@H]1O
4,150,C=C[C@]1(C)C[C@@H](OC(=O)CSc2nc3cc[n+](Cc4ccc(OC)cc4)cc3[nH]2)[C@]2(C)[C@H](C)CC[C@]3(CCC(=O)[C@H]32)[C@@H](C)[C@@H]1O.[Br-]
5,367,C=C[C@]1(C)C[C@@H](OC(=O)CSc2nc3cc[n+](Cc4ccc(-c5ccccc5)cc4)cc3[nH]2)[C@]2(C)[C@H](C)CC[C@]3(CCC(=O)[C@H]32)[C@@H](C)[C@@H]1O.[Br-]

# More lines, now with the values behind:
row,Structure (SMILES),solubility at 12 h [µg/mL]
1,C=C[C@]1(C)C[C@@H](OC(=O)CSc2nc3cc[n+](Cc4ccc(C(C)(C)C)cc4)cc3s2)[C@]2(C)[C@H](C)CC[C@]3(CCC(=O)[C@H]32)[C@@H](C)[C@@H]1O.[Br-],453
2,C=C[C@]1(C)C[C@@H](OC(=O)CSCCN(CC)CC)[C@]2(C)[C@H](C)CC[C@]3(CCC(=O)[C@H]32)[C@@H](C)[C@@H]1O [TIAMULIN],128
3,C=C[C@]1(C)C[C@@H](OC(=O)CSc2nc3cc[n+](Cc4cc(OC)cc(OC)c4)cc3[nH]2)[C@]2(C)[C@H](C)CC[C@]3(CCC(=O)[C@H]32)[C@@H](C)[C@@H]1O.[Br-],176
4,C=C[C@]1(C)C[C@@H](OC(=O)CSc2nc3cc[n+](Cc4ccc(Cl)cc4)cc3s2)[C@]2(C)[C@H](C)CC[C@]3(CCC(=O)[C@H]32)[C@@H](C)[C@@H]1O.[Br-],449
5,C=C[C@]1(C)C[C@@H](OC(=O)CSc2nc3cc[n+](Cc4ccc(F)cc4)cc3s2)[C@]2(C)[C@H](C)CC[C@]3(CCC(=O)[C@H]32)[C@@H](C)[C@@H]1O.[Br-],395
6,C=C[C@]1(C)C[C@@H](OC(=O)CSc2nc3cc[n+](Cc4cc(F)ccc4C#N)cc3s2)[C@]2(C)[C@H](C)CC[C@]3(CCC(=O)[C@H]32)[C@@H](C)[C@@H]1O.[Br-],168
7,Br.C=C[C@]1(C)C[C@@H](OC(=O)CSc2nc3cc[n+](Cc4ccc([N+](=O)[O-])cc4)cc3s2)[C@]2(C)[C@H](C)CC[C@]3(CCC(=O)[C@H]32)[C@@H](C)[C@@H]1O,648
8,C=C[C@]1(C)C[C@@H](OC(=O)CSc2nc3cc[n+](Cc4cc(C)cc(C)c4)cc3[nH]2)[C@]2(C)[C@H](C)CC[C@]3(CCC(=O)[C@H]32)[C@@H](C)[C@@H]1O.[Br-],414
9,C=C[C@]1(C)C[C@@H](OC(=O)CSc2nc3cc[n+](Cc4ccc(OC)cc4)cc3s2)[C@]2(C)[C@H](C)CC[C@]3(CCC(=O)[C@H]32)[C@@H](C)[C@@H]1O.[Br-],177
